Key:
[1] = in vitro; settings: human, Caco-2, permeability
[2] = in vivo; settings: rat, plasma, po, 5 mg/kg
[3] = in vivo; settings: mouse, plasma, po, 10 mg/kg
[4] = in vivo; settings: dog, plasma, po, 0.5 mg/kg
[5] = in vivo; settings: cynomolgus monkey, plasma, po, 0.5 mg/kg
[6] = physchem; settings: octanol/water, pH 6.5

Compound	Papp [1]	AUC [2]	AUC [3]	AUC [4]	AUC [5]	logD [6]
O=c1n(Cc2nc3ccccc3n2CCCCF)c2cnccc2n1CC(F)(F)F	24.5 ×10⁻⁶ cm/s	–	–	–	–	–
CCS(=O)(=O)CCCn1c(Cn2c(=O)n(CC(F)(F)F)c3ccncc32)nc2ccccc21	–	133 ng·h/mL	2000 ng·h/mL	438 ng·h/mL	118 ng·h/mL	–
N#CCCCn1c(Cn2c(=O)n(C3CC3)c3ccncc32)nc2ccccc21	–	973 ng·h/mL	600 ng·h/mL	755 ng·h/mL	270 ng·h/mL	2.1
N#CCCCn1c(Cn2c(=O)n(CC(F)(F)F)c3ccncc32)nc2ccccc21	19.7 ×10⁻⁶ cm/s	–	–	–	–	–
CC(C)n1c(=O)n(Cc2nc3ccccc3n2CCCC#N)c2cnccc21	16.9 ×10⁻⁶ cm/s	–	–	–	–	–

The next lines start with the values.

Papp [1]	AUC [2]	AUC [3]	AUC [4]	AUC [5]	logD [6]	Compound
21.4 ×10⁻⁶ cm/s	–	–	–	–	–	CC(C)(C)n1c(=O)n(Cc2nc3ccccc3n2CCCC#N)c2cnccc21
3.6 ×10⁻⁶ cm/s	40 ng·h/mL	1430 ng·h/mL	307 ng·h/mL	185 ng·h/mL	–	CS(=O)(=O)CCCn1c(Cn2c(=O)n(CC(F)(F)F)c3ccncc32)nc2ccccc21

Source: ChEMBL document CHEMBL1146342, “Respiratory syncytial virus fusion inhibitors. Part 4: optimization for oral bioavailability” (Bioorg Med Chem Lett, 2007)
